Reference: ChEMBL document CHEMBL5120938, “Development of BET Inhibitors as Potential Treatments for Cancer: Optimization of Pharmacokinetic Properties” (ACS Med Chem Lett, 2022)

Assays:
[1] = Metabolic stability in alamethicin treated CD-1 mouse liver microsomes assessed as half life pretreated for 5 mins followed by NADPH addition and measured up to 45 mins by LC-MS/MS analysis; assay type: ADME, Microsome; details: time < 50 min
[2] = Metabolic stability in alamethicin treated Beagle dog liver microsomes assessed as half life pretreated for 5 mins followed by NADPH addition and measured up to 45 mins by LC-MS/MS analysis; assay type: ADME, Canis lupus familiaris, Microsome; details: time < 50 min
[3] = Metabolic stability in alamethicin treated human liver microsomes assessed as half life pretreated for 5 mins followed by NADPH addition and measured up to 45 mins by LC-MS/MS analysis; assay type: ADME, Microsome; details: time < 50 min
[4] = Efflux ratio of apparent permeability across […] in human Caco-2 cells after 2 hrs by liquid scintillation counting analysis; assay type: ADME, cell-based; details: caco-2, 2 h
[5] = Inhibition of c-MYC expression in human JJN-3R cells measured after 4 hrs; assay type: functional, cell-based
[6] = Metabolic stability in alamethicin treated Sprague-Dawley rat liver microsomes assessed as half life pretreated for 5 mins followed by UDPGA addition and measured up to 45 mins by LC-MS/MS analysis; assay type: ADME, Microsome; details: time < 50 min
[7] = Metabolic stability in alamethicin treated Beagle dog liver microsomes assessed as half life pretreated for 5 mins followed by UDPGA addition and measured up to 45 mins by LC-MS/MS analysis; assay type: ADME, Canis lupus familiaris, Microsome; details: for half-life: Beagle, liver microsomes, time < 50 min
[8] = Metabolic stability in alamethicin treated Sprague-Dawley rat liver microsomes assessed as half life pretreated for 5 mins followed by NADPH addition and measured up to 45 mins by LC-MS/MS analysis; assay type: ADME, Microsome; details: time < 50 min
[9] = Metabolic stability in alamethicin treated cynomologus monkey liver microsomes assessed as half life pretreated for 5 mins followed by UDPGA addition and measured up to 45 mins by LC-MS/MS analysis; assay type: ADME, Macaca fascicularis, Microsome; details: cynomolgus monkey, time < 50 min
[10] = target: Bromodomain-containing protein 4 (Homo sapiens, UniProt O60885); assay: Inhibition of N-terminal His6-tagged recombinant human BRD4 (44 to 168 residues) expressed in Escherichia coli BL21 (DE3) incubated for 60 mins by TR-FRET assay
[11] = Metabolic stability in alamethicin treated CD-1 mouse liver microsomes assessed as half life pretreated for 5 mins followed by UDPGA addition and measured up to 45 mins by LC-MS/MS analysis; assay type: ADME, Microsome; details: time < 50 min
[12] = Antiproliferative activity against human JJN-3R cells assessed as inhibition of cell proliferation measured after 72 hrs by MTS assay; assay type: functional, cell-based
[13] = Metabolic stability in alamethicin treated cynomologus monkey liver microsomes assessed as half life pretreated for 5 mins followed by NADPH addition and measured up to 45 mins by LC-MS/MS analysis; assay type: ADME, Macaca fascicularis, Microsome; details: cynomolgus monkey, time < 50 min
[14] = Metabolic stability in alamethicin treated human liver microsomes assessed as half life pretreated for 5 mins followed by UDPGA addition and measured up to 45 mins by LC-MS/MS analysis; assay type: ADME, Microsome; details: time < 50 min
[15] = Oral bioavailability in rat at 5 mg/kg; assay type: ADME, organism-based; details: in vivo
[16] = AUC in mouse xenografted with human BR1077F cells at 2 mg/kg, po QD treated as 5 days on and 2 days off regimen for 2 weeks starting from 26 days post tumor implantation; assay type: ADME, organism-based; set-up: time 2 weeks, dose 2 mg/kg, route po; details: in vivo
[17] = Half life in cynomologus monkey at 0.1 mg/kg, iv; assay type: ADME, organism-based, Macaca fascicularis; details: cynomolgus monkey, in vivo
[18] = AUC in mouse at 3 mg/kg, po; assay type: ADME, organism-based; set-up: dose 3 mg/kg, route po; details: in vivo
[19] = Half life in mouse at 1 mg/kg, iv; assay type: ADME, organism-based; details: in vivo
[20] = Oral bioavailability in dog at 0.3 mg/kg; assay type: ADME, organism-based, Canis lupus familiaris; details: in vivo
[21] = Volume of distribution in rat at 5 mg/kg, po or 1 mg/kg, iv; assay type: ADME, organism-based; details: in vivo
[22] = target: Bromodomain-containing protein 2 (Homo sapiens, UniProt P25440); assay: Inhibition of BRD2 (unknown origin)
Sequence of Bromodomain-containing protein 2 (P25440 whole entry): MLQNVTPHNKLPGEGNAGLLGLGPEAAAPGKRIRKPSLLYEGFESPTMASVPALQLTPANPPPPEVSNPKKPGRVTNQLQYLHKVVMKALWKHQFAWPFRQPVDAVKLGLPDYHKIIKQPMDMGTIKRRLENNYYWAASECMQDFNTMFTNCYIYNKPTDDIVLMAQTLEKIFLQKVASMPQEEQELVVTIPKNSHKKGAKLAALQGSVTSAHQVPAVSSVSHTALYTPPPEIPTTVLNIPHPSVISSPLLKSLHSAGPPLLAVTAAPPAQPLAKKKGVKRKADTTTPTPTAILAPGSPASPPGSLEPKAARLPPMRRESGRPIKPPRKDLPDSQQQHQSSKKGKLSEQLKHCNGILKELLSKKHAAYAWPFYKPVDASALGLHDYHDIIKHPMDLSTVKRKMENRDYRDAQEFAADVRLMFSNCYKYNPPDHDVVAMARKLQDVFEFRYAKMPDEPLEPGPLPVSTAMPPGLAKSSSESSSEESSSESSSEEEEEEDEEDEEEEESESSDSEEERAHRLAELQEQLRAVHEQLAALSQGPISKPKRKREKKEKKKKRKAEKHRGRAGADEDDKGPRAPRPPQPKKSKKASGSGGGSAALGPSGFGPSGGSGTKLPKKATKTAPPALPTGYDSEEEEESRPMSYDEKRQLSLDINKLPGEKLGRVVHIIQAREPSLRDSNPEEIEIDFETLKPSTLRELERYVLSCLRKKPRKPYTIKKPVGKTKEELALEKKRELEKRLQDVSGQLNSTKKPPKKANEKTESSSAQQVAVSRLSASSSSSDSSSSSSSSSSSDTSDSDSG

[23] = Oral bioavailability in cynomologus monkey at 0.3 mg/kg; assay type: ADME, organism-based, Macaca fascicularis; details: cynomolgus monkey, in vivo
[24] = Volume of distribution in dog at 0.3 mg/kg, po or 0.1 mg/kg, iv; assay type: ADME, organism-based, Canis lupus familiaris; details: in vivo
[25] = Half life in rat at 1 mg/kg, iv; assay type: ADME, organism-based; details: in vivo
[26] = Volume of distribution in cynomologus monkey at 0.3 mg/kg, po or 0.1 mg/kg, iv; assay type: ADME, organism-based, Macaca fascicularis; details: cynomolgus monkey, in vivo
[27] = AUC in dog at 0.3 mg/kg, po; assay type: ADME, organism-based, Canis lupus familiaris; set-up: dose 0.3 mg/kg, route po; details: in vivo
[28] = AUC in rat at 5 mg/kg, po; assay type: ADME, organism-based; set-up: dose 5 mg/kg, route po; details: in vivo
[29] = Antitumor activity against human BR1077F cells xenografted in mouse assessed as tumor growth inhibition at 2 mg/kg, po QD treated as 5 days on and 2 days off regimen for 2 weeks starting from 26 days post tumor implantation; assay type: functional; details: 336 h, read-out: TGI
[30] = AUC in cynomologus monkey at 0.3 mg/kg, po; assay type: ADME, organism-based, Macaca fascicularis; set-up: dose 0.3 mg/kg, route po; details: cynomolgus monkey, in vivo
[31] = Volume of distribution in mouse at 3 mg/kg, po or 1 mg/kg, iv; assay type: ADME, organism-based; details: in vivo
[32] = Oral bioavailability in mouse at 3 mg/kg; assay type: ADME, organism-based; details: in vivo
[33] = Drug metabolism in human hepatocytes assessed as glucuronides formation at 5 uM measured after 2 hrs by LC/UV/MS analysis; assay type: ADME, cell-based, Hepatocyte
[34] = Half life in dog at 0.1 mg/kg, iv; assay type: ADME, organism-based, Canis lupus familiaris; details: in vivo
[35] = target: Bromodomain-containing protein 3 (Homo sapiens, UniProt Q15059); assay: Inhibition of BRD3 (unknown origin)
Sequence of Bromodomain-containing protein 3 (Q15059 whole entry): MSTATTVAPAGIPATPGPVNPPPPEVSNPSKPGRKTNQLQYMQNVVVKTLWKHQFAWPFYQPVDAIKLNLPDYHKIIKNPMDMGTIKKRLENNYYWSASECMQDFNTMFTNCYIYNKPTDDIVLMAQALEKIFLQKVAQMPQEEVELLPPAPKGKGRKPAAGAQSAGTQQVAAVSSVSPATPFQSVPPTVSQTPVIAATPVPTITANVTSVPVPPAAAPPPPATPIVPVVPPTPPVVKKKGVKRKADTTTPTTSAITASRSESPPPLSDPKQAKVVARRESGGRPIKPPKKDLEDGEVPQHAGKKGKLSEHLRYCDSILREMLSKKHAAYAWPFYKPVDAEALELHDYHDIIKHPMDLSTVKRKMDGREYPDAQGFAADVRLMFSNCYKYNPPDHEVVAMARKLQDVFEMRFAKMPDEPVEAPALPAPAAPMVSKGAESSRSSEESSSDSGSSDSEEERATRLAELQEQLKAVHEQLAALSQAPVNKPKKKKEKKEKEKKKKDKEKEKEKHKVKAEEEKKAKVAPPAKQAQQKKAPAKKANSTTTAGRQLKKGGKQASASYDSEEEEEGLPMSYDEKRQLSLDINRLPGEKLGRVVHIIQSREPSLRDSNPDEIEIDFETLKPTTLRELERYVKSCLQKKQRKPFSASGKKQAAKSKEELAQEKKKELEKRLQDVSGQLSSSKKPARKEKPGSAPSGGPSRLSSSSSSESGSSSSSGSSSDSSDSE

Q: Which half-life [1] does the source give for `[2H]C([2H])([2H])c1nnn(C)c1-c1cnc2c3ccc(C(C)(C)O)c(F)c3n([C@H](c3ccccc3)C3CCOCC3)c2c1` here?
A: 42 min

Q: What about the half-life [2] of the same compound?
A: 69 min

Q: What about the half-life [3] of the same compound?
A: 67 min

Q: And the Ratio [4]?
A: 1.4

Q: What about the IC50 [5] of the same compound?
A: 1.5 nM

Q: And the half-life [6]?
A: 6 min

Q: What about the half-life [7] of the same compound?
A: 120 min

Q: What about the half-life [8] of the same compound?
A: 38 min

Q: And the half-life [9]?
A: 120 min

Q: And the IC50 [10]?
A: 1 nM

Q: And the half-life [11]?
A: 120 min

Q: And the IC50 [12]?
A: 5 nM

Q: What about the half-life [13] of the same compound?
A: 29 min

Q: And the half-life [14]?
A: 120 min

Q: Which results are given for `[2H]C([2H])([2H])c1nnn(C)c1-c1cnc2c3cc(F)c(C(C)(C)O)cc3n([C@H](c3ccccc3)C3CCOCC3)c2c1`?
A: bioavailability [15]: 74%; AUC at 336 h [16]: 4.8 µM·h; half-life [1]: 41 min; half-life [17]: 240 min; half-life [2]: 32 min; half-life [3]: 52 min; Ratio [4]: 1.8; AUC [18]: 25 µM·h; IC50 [5]: 2 nM; half-life [19]: 204 min; half-life [6]: 120 min; bioavailability [20]: 73%; Vd [21]: 2.9 L/kg; t1/2 ([7]; microsomes, 50 min): 120 min; IC50 [22]: 0.2 nM; half-life [8]: 46 min; bioavailability [23]: 85%; Vd [24]: 5.8 L/kg; half-life [25]: 246 min; Vd [26]: 1.3 L/kg; AUC [27]: 0.55 µM·h; AUC [28]: 6.6 µM·h; inhibition in vivo at 2 mg/kg [29]: 88%; half-life [9]: 120 min; half-life [11]: 120 min; IC50 [12]: 6 nM; AUC [30]: 1.9 µM·h; half-life [13]: 10 min; Vd [31]: 1.4 L/kg; bioavailability [32]: 100%; Drug metabolism [33]: Metabolite_Notdetected; half-life [14]: 120 min; half-life [34]: 456 min; IC50 [35]: 1.6 nM

Q: With `[2H]C([2H])([2H])c1nnn(C)c1-c1cnc2c3c(F)cc(C(C)(C)O)cc3n([C@H](c3ccccc3)C3CCOCC3)c2c1` as the compound, how does the half-life [1] read?
A: 48 min

Q: What about the half-life [2] of the same compound?
A: 40 min

Q: What about the half-life [3] of the same compound?
A: 63 min

Q: What about the Ratio [4] of the same compound?
A: 9.7

Q: What about the IC50 [5] of the same compound?
A: 4.5 nM

Q: What about the half-life [6] of the same compound?
A: 120 min

Q: What about the half-life [7] of the same compound?
A: 120 min

Q: And the half-life [8]?
A: 62 min

Q: What about the half-life [9] of the same compound?
A: 120 min

Q: What about the IC50 [10] of the same compound?
A: 8 nM

Q: What about the half-life [11] of the same compound?
A: 120 min

Q: And the IC50 [12]?
A: 10 nM

Q: What about the half-life [13] of the same compound?
A: 32 min

Q: What about the half-life [14] of the same compound?
A: 120 min

Q: With `Cc1nnn(C)c1-c1cnc2c3ccc(C(C)C)cc3n([C@H](c3ccccc3)C3CCOCC3)c2c1` as the compound, how does the IC50 [5] read?
A: 9 nM

Q: And the IC50 [10]?
A: 4 nM

Q: What about the IC50 [12] of the same compound?
A: 39 nM

Q: Which half-life [1] does the source give for `[2H]C([2H])([2H])c1nnn(C)c1-c1cnc2c3ccc(S(C)(=O)=O)cc3n([C@H](c3ccccc3)C3CCOCC3)c2c1` here?
A: 22 min

Q: And the half-life [2]?
A: 34 min

Q: And the half-life [3]?
A: 75 min

Q: And the Ratio [4]?
A: 4.5

Q: What about the IC50 [5] of the same compound?
A: 2 nM

Q: What about the half-life [8] of the same compound?
A: 47 min

Q: And the IC50 [10]?
A: 1.7 nM

Q: What about the IC50 [12] of the same compound?
A: 13 nM

Q: What about the half-life [13] of the same compound?
A: 40 min

Q: Which half-life [1] does the source give for `[2H]C([2H])([2H])c1nnn(C)c1-c1cnc2c3ccc(C(C)(C)O)cc3n([C@H](c3ccccc3)C3CCOCC3)c2c1` here?
A: 25 min

Q: And the half-life [2]?
A: 37 min

Q: What about the half-life [3] of the same compound?
A: 59 min

Q: What about the Ratio [4] of the same compound?
A: 6.1

Q: And the IC50 [5]?
A: 0.8 nM

Q: What about the half-life [8] of the same compound?
A: 43 min

Q: What about the IC50 [10] of the same compound?
A: 1.2 nM

Q: And the IC50 [12]?
A: 6 nM

Q: And the half-life [13]?
A: 29 min

Q: With `COC(C)(C)c1ccc2c3ncc(-c4c(C)nnn4C)cc3n([C@H](c3ccccc3)C3CCOCC3)c2c1` as the compound, how does the half-life [1] read?
A: 7 min

Q: What about the half-life [3] of the same compound?
A: 3 min

Q: What about the IC50 [5] of the same compound?
A: 3 nM

Q: What about the half-life [8] of the same compound?
A: 18 min

Q: What about the IC50 [10] of the same compound?
A: 1.4 nM

Q: What about the IC50 [12] of the same compound?
A: 7 nM
